Laboratory results reported in patent US10913728B2, “O-substituted hydroxamic acids” (The Johns Hopkins University, priority 2016, dated 2021).
Marks after values point to notes of the source that are not given here.

How the values were obtained:
[1] = UV-Vis protocol: decomposition kinetics, donor half-lives at pH 7.4 and 37° C.; type: physicochemical; conditions: buffer, pH 7.4, 37° C.
Method: A UV-VIS protocol was used to determine the decomposition kinetics of Compounds 1-5. According to this protocol, decomposition of the test compound was monitored by UV-Vis spectroscopy to measure donor half-lives at pH 7.4 and 37° C. (Guthrie, D. A.; Kim, N. Y.; Siegler, M. A.: Moore, C. D.; Toscano, J. P. J. Am. Chem. Soc. 2012, 134, 1962-1965; and Guthrie, D. A.; Ho, A.; Takahashi, C. G.; Collins, A.; Morris, M.; Toscano, J. P. J. Org. Chem. 2015, 80, 1338-1348).

[2] = 1H NMR protocol: decomposition of the compounds and relative product yields in aqueous solution; type: physicochemical; conditions: for Carboxylic Acid relative product yield / NHPY relative product yield / PY (corresponding pyrazolone) relative product yield: decomposition in aqueous solution, 1H NMR
Source text: A ^1H NMR spectroscopy protocol was used to examine the decomposition of the compounds of the disclosure and measure the relative product yields in aqueous solution (Guthrie, D. A.; Ho, A.; Takahashi, C. G.; Collins, A.; Morris, M.; Toscano, J. P. J. Org. Chem. 2015, 80, 1338-1348; and Guthrie, D. A.; Nourian, S.; Takahashi, C. G.; Toscano, J. P. J. Org. Chem. 2015, 80, 1349-1356).

[3] = Nitroxyl production via N2O quantification in the headspace (GC), relative to Angeli's salt standard; type: physicochemical; set-up: key to % HNO: Stable; conditions: for % HNO: N2O yield relative to AS standard, phosphate buffer with DTPA, 37° C.
Source text: Nitrous oxide (N2O) is produced via the dimerization and dehydration of HNO, and is the most common marker for nitroxyl production (Fukuto et al., Chem. Res. Toxicol. 18:790-801 (2005)). […] Using either nitrous oxide gas or Angeli's salt (“AS”) as a standard, the relative amounts of N2O released from compounds of the disclosure is examined via gas chromatography (“GC”) headspace analysis.
Another procedure for determining N2O released from compounds of the disclosure is as follows. A Varian CP-3800 instrument equipped with a 1041 injector, electron capture detector, and a 25 m 5 Å molecular sieve capillary column was applied for the analysis of nitrous oxide (N2O). Grade 5.0 nitrogen was used as both the carrier (8 mL/min) and the make-up (22 mL/min) gas. For all measurements, the column oven temperature was kept constant at 150° C., and the injector oven and the detector oven were held at 200° C. and 300° C., respectively. A 100 μL gastight syringe with a sample-lock was used for all gas injections. Samples were prepared in 6 mL Wheaton Clr headspace vials with volumes pre-measured for sample uniformity (actual vial volume ranges from 5.8-6.3 mL). Vials were charged with 3 mL of phosphate buffer containing the metal chelator, diethylenetriaminepentaacetic acid (DTPA), and fit with rubber septa and 20 mm aluminum seals. The vials were purged with argon and equilibrated for at least 10 minutes at 37° C. in a dry block heater. A stock solution of Angeli's salt (AS) was prepared in 10 mM sodium hydroxide, and compounds of the disclosure (10 mM) were prepared in acetonitrile and used immediately after preparation. 30 μL of the stock solutions was transferred into vials using a gastight syringe, yielding final concentrations of 0.5, 0.1, and 0.02 mM. Substrates were then incubated long enough to ensure complete decomposition and equilibration of N2O with the headspace. Depending on the concentration of the compound of the disclosure, 60 or 20 μL of the headspace was sampled and injected three times using a gastight syringe with a sample lock. The N2O yield was averaged and reported relative to the AS standard.

[4] = 1H NMR mechanistic study: decomposition of Compound 1 in the presence of 3,4-dimethyl-1-phenylpyrazolone (PY-2); type: physicochemical; conditions: 0.5 mM compound with 0.5 mM PY-2, 0.25 M phosphate buffer, 0.2 mM DTPA, pH 7.4, 37° C., argon
Method: A ^1H NMR Spectroscopy Protocol was used to confirm the formation of nitroso carbonyls following decomposition of Compound 1. In this protocol, 0.5 mM Compound 1 was incubated in the presence of 0.5 mM 3,4-dimethyl-1-phenylpyrazolone in 0.25 M phosphate buffer with 0.2 mM DTPA at pH 7.4, 80% H2O, 10% D2O, and 10% DMSO-d6 at 37° C. under argon. Spectra were collected at the start of the experiment and after complete decomposition.

[5] = cited from earlier work
[6] = Stability of NHPY-1 incubated with PY-2 by 1H NMR spectroscopy; type: physicochemical; conditions: 1H NMR spectroscopy at pH 7.4 and 10
Source text: Based on reactivity studies of bis-heteroatom-substituted amides (Glover, S. A. In The Chemistry of Hydroxylamines, Oximes, and Hydroxamic Acids, Part 2; Rappoport, Z., Liebman, J. F., Eds.; John Wiley & Sons: Chichester, West Sussex, 2009, p 839-923), the formation of NHPY-1 may be possible through the direct attack of PY-2 on the amide nitrogen of the hydroxamic acid moiety of […] (Scheme 4).

| Compound | half-life ([1]; UV-Vis spectroscopy) [min] | Carboxylic Acid relative product yield [2] | NHPY relative product yield [2] | PY (corresponding pyrazolone) relative product yield [2] | NHPY-1 yield from decomposition of Compound 1 ([2]; in the absence of PY-2) [%] | acetate yield from decomposition of Compound 1 ([2]; in the absence of PY-2) [%] | % HNO ([3]; 20 μM compound) | % HNO ([3]; 100 μM compound) | % HNO ([3]; 500 μM compound) | HNO yield from decomposition of Compound 1 ([3]; in the absence of PY-2) [%] | formation of NHPY-1 upon decomposition [4] | formation of NHPY-1 upon decomposition ([4]; listed as Compound I) | half-life [1] [min] | pKa [5] | stability on incubation with PY-2 [6] |
| --- | --- | --- | --- | --- | --- | --- | --- | --- | --- | --- | --- | --- | --- | --- | --- |
| CO/N=C(\C)C1(ONC(C)=O)C(=O)N(c2ccccc2)N=C1C (stereo not drawn) [Compound 1, N-((4-(1-(methoxyimino)ethyl)-3-methyl-5-oxo-1-phenyl-4,5-dihydro-1H-pyrazol-4-yl)oxy)acetamide] | 25 | 73 | 26 | 74 | 26 | 73 | 91% | 75% | 70% | 70 | not formed | quantitative | – | – | – |
| CC(=O)NOC1(C)C(=O)N(c2ccccc2)N=C1C (stereo not drawn) [Compound 2, N-((3,4-dimethyl-5-oxo-1-phenyl-4,5-dihydro-1H-pyrazol-4-yl)oxy)acetamide] | – | – | – | – | – | – | a | a | a | – | – | – | – | – | – |
| CO/N=C(\C)C1(ONC(=O)OC)C(=O)N(c2ccccc2)N=C1C (stereo not drawn) [Compound 3, methyl (4-(1-(methoxyimino)ethyl)-3-methyl-5-oxo-1-phenyl-4,5-dihydro-1H-pyrazol-4-yl)oxycarbamate] | – | 27 | 72 | 28 | – | – | 41% | 29% | 20% | – | – | – | 0.6 | – | – |
| CO/N=C(\C)C1(ONC(=O)OC)C(=O)N(C)N=C1C (stereo not drawn) [Compound 4, methyl (4-(1-(methoxyimino)ethyl)-1,3-dimethyl-5-oxo-4,5-dihydro-1H-pyrazol-4-yl)oxycarbamate] | 1.2 | 14 | 86 | 14 | – | – | 29% | 17% | 8% | – | – | – | – | – | – |
| CO/N=C(\C)C1(ONC(=O)OC(C)(C)C)C(=O)N(c2ccccc2)N=C1C (stereo not drawn) [Compound 5, tert-butyl (4-(1-(methoxyimino)ethyl)-3-methyl-5-oxo-1-phenyl-4,5-dihydro-1H-pyrazol-4-yl)oxycarbamate] | – | – | – | – | – | – | 35^c % | 26% | – | – | – | – | – | – | – |
| CON=C(C)C1(N(O)C(C)=O)C(=O)N(c2ccccc2)N=C1C (stereo not drawn) [NHPY-1, N-hydroxy-N-(4-(1-(methoxyimino)ethyl)-3-methyl-5-oxo-1-phenyl-4,5-dihydro-1H-pyrazol-4-yl)acetamide] | – | – | – | – | – | – | – | – | – | – | – | – | – | 10.0 | stability was confirmed |
